We go through 1 compound from US8324188B2, “Combinations of ET-18-O-CH3and anti-cancer agents for the treatment of cancer” (priority 2006, dated 2012).

One experiment deals with LN-18. Kind of experiment: WST-1 proliferation assay, LN-18. The experiment is classed as cell-based. The note with it: Homo sapiens. As for the experimental part: (§1) 2000 cells were plated in each well of 96-well flat bottom plates, and incubated overnight at 37 °C in 5% CO2. The growth of plated cells was measured by adding […] of WST-1 reagent (Roche Applied Sciences, Germany) to 3 control wells and measuring the absorbance at 650 nm and at 450 nm, respectively, with a SpectraMax250 plate reader. […] After this incubation, VVST-1 reagent was added to the wells and OD650-OD450 values were calculated as before. six wells were assayed for each conditions and standard deviation was determined: all experiments were performed at least three times independently. […] Six different concentrations of each drug were used in combinations index measurements and compared to +/− cells, and compared to controls without compound.
(Tetrazolium dyes change colour on reduction, which living cells bring about.)

In another experiment the test system is HCC827 (FAS positive). Kind of experiment: WST-1 proliferation assay, HCC827. The experiment is classed as cell-based, human. The note with it: single agent, per experiment line. As for the experimental part:
as §1, with “DDP and GMZ” for “Six different concentrations of each drug”, “both purchased from Sigma-aldrich Corp., St. Louis, Mo., USA. The following cell lines were used: A549 (FAS negative), NCI-H460 (FAS positive),” for “used in combinations index measurements”, “HCC827 (FAS positive), all obtained from the ATTC, Rockville, Md., USA.” for “compared to +/− cells, and compared to controls without compound.”

The test system of experiment [1] is LNCaP androgen-sensitive human prostate adenocarcinoma cells. As to the kind of experiment: Apo-ONE Homogenous Caspase-3/7 Assay in LNCaP cells. The experiment is classed as cell-based. As for the experimental part: (§2) FIG. 1. Depicts the in vitro effects of 1-O-octadecyl-2-O-methyl-glycero-3-phosphocholine (final concentration 10 μM), (ionizing) radiation (absorbed dose of 5 Gray units; indicated as “RT”), and a combination thereof on programmed cell death (apoptosis) and the survival rate of LNCaP androgen-sensitive human prostate adenocarcinoma cells. Apoptosis was determined using the Apo-ONE™ Homogenous Caspase-317 Assay, Promega, Inc., Madison, Wis., USA according to the manufacturers instructions. The percentage of living cancer cells was estimated by means of trypan blue dye exclusion as described (Freshney, R. I. (1994) Culture of Animal Cells: A Manual of Basic Technique. 3rd Ed. Wiley-Liss. New York. USA). The cells were exposed to radiation six hours after (FIG. 1A), concomitantly with (FIG. 1B), or six hours before administration of 1-O-octadecyl-2-O-methyl-glycero-3-phospho-choline (FIG. 1C). The caspase assay was performed 12 hours after exposure to radiation. The respective data shown represent the average of two independent experiments.
(§3) First, the in vitro effects of 1-O-octadecyl-2-O-methyl-glycero-3-phosphocholine, (ionizing) radiation, and a combination thereof on programmed cell death (apoptosis) and the survival rate of LNCaP androgen-sensitive human prostate adenocarcinoma cells were measured. The LNCaP cell line was established from a metastatic lesion of the adenocarcinoma. The cells were treated with a final concentration of 10 μM 1-O-octadecyl-2-O-methyl-glycero-3-phosphocholine and (ionizing) radiation corresponding to an absorbed dose of 5 Gray units.
(§4) Apoptosis was determined using the Apo-ONE™ Homogenous Caspase-3/7 Assay, Promega, Inc., Madison, VV1, USA according to the manufacturers instructions. The percentage of living tumor cells was estimated by means of trypan blue dye exclusion as described (Freshney, R. I. (1994) Culture of Animal Cells: A Manual of Basic Technique. 3rd Ed. Wiley-Liss. New York. USA)
(§5) The cells were exposed to radiation six hours after (FIG. 1A), concomitantly with (FIG. 1B), or six hours before administration of 1-O-octadecyl-2-O-methyl-glycero-3-phospho-choline (FIG. 1C). The caspase assay was performed 12 hours after exposure to radiation. The respective data shown represent the average of two independent experiments.
In a further approach, 10 μM 1-O-octadecyl-2-O-methyl-glycero-3-phosphocholine (final concentration; “CHEM”) and (ionizing) radiation (5 Gray units; “RT”) were administered simultaneously to the LNCaP cells but the subsequent incubation period was extended to 24 hours. Apoptosis was measured using the Apo-ONE™ Homogenous Caspase-3/7 Assay as described above and expressed as relative fluorescence units (RFLU). The percentage of apoptotic cells was determined by flow cytometric analysis of annexin V-PE positive-stained and 7-AAD (7-Amino ActinomycinD) negative-stained cells (both purchased from BD Biosciences, San Jose, Calif., USA) according to established standard protocols. The data represent means±SEM from three independent experiments.
Apoptosis was measured using the Apo-ONE™ Homogenous Caspase-3/7 Assay as described above and expressed as relative fluorescence units (RFLU). The percentage of apoptotic cells was determined via annexin V-PE/7-AAD staining as described above. The caspase-317 assay and annexin staining were performed 22 hours after CHEM treatment.

Experiment [2] has the same test system. As to the kind of experiment: trypan blue dye exclusion, living LNCaP cells. The class given is cell-based. As for the experimental part:
as §2, §3, §4, §5

In experiment [3] the test system is androgen-insensitive LNCaP-Res cells. Kind of experiment: apoptosis in LNCaP-Res cells. The note with it: data not shown. The class given is cell-based, human.
The subject of the next experiment is HMEC1 endothelial cells. The note with it: cited from earlier work.

“And” between values parts separate entries of the source, which are not always exact repeats. Equal entries are not always repeated.

For orientation: IC50 means the concentration that inhibits the measured activity by half. On to `CCCCCCCCCCCCCCCCCCOCC(COP(=O)([O-])OCC[N+](C)(C)C)OC` (racemic) [AP-121, 1-O-octadecyl-2-O-methyl-glycero-3-phosphocholine], for which the IC50 with LN-18 was 1.3 µM; with HCC827 (FAS positive) it was 2.4 µM and 0.85 µM and 1.6 µM. Moreover, in experiment [1] (10 μM administered six hours prior to radiation (5 Gray), combined treatment (FIG. 1A)), the “increase in apoptotic response (caspase-3/7 assay)” value is recorded as greater than 2.5 fold. Moreover, in experiment [1] (10 μM, radiation six hours before (FIG. 1C)), the “extent of apoptosis, increase in cells only exposed to the chemical as compared to the combined treatment” value was “about 25%”. Also, the “Caspase-3/7 activity (RFLU)” value in experiment [1] (AD (androgen deprivation, two days) + 5 μM CHEM, AD alone 81) is reported as 126 RFLU; in experiment [1] (AD + 10 μM CHEM) it was 115 RFLU; in experiment [1] (AD + R1881 (two days prior) + 5 μM CHEM), 453 RFLU; in experiment [1] (AD + R1881 (two days prior) + 10 μM CHEM), 962 RFLU; in experiment [1] (CHEM 10 μM + RT 5 Gray simultaneously, 24 hours, means±SEM, p < 0.0001 vs CHEM and RT) it was 1514 ± 102 RFLU; in experiment [1] (CHEM 10 μM alone, 24 hours, means±SEM, three experiments, Control 193 ± 39) it was 580 ± 207 RFLU. The “Caspase-3/7 activity (RFLU)” value worked out at 380 RFLU in experiment [1] (Contr. + 5 μM CHEM, 22 hours after CHEM, Contr. 235) and 436 RFLU in experiment [1] (Contr. + 10 μM CHEM, 22 hours after CHEM). The “survival of the cells” value in experiment [2] (10 μM administered six hours after radiation (5 Gray), combined treatment (FIG. 1C)) is recorded as “about 40%”. The “survival of the tumor cells” value in experiment [2] (10 μM administered six hours prior to radiation (5 Gray), combined treatment, untreated controls about 85% (FIG. 1A)) is “about 45%”. In addition, the survival rate entry is recorded as “about 55%” in experiment [2] (10 μM concomitant with radiation (5 Gray), untreated controls about 86% (FIG. 1B)); “about 50%” in experiment [2] (10 μM, individual chemical treatment (FIG. 1B)); “about 45%” in experiment [2] (10 μM, individual chemical treatment (FIG. 1C)); “about 60%” in experiment [2] (10 μM, individual treatment without radiation (FIG. 1A)). Besides, the “apoptosis in CHEM+RT treated cells” value in experiment [3] is recorded as “enhancement of apoptosis”. For the same compound, the anti-angiogenic activity with HMEC1 endothelial cells was 60 nM.
